What was measured:
[1] = Stability in human liver microsomes; format: in vitro ADME; details: 37° C., NADPH
Method: Half-Life Human Microsomes:
(§1) Compounds were evaluated for stability in human liver microsomes. A 10 mM stock solution of the compound being evaluated was prepared in DMSO and diluted with water:acetonitrile (1:1) to a concentration of 1 mM. A working concentration of 100 μM was prepared by further dilution with water:acetonitrile (1:1). To make the preincubation mixture, 2.5 μL of the diluted compound was combined with 75 μL of human liver microsomes at 3.33 mg/mL, and 85 μL of 100 mM potassium phosphate buffer, and this mixture was pre-incubated for 10 min at 37° C. To make the 60 minute mixture without cofactor, 32.5 μL of the preincubation mixture was combined with 17.5 μL of 100 mM potassium phosphate buffer and incubated for 60 min at 37° C. To make the 0 min sample with cofactor (NADPH), 16.25 μL of the preincubation mixture was combined with 200 μL of acetonitrile containing internal standard and 8.75 μL of cofactor (NADPH). To make the incubation mixture, 62 μL of cofactor (2.85 mM) was combined with the remaining incubation mixture, and incubated for 60 min at 37° C. To prepare the sample mixture to be evaluated, 25 μL incubation mixture was combined with 200 μL of acetonitrile containing internal standard and vortexed for 5 min at 1200 rpm, then centrifuged for 10 min at 4000 rpm. The supernatant was diluted 2 fold with water and injected on LC-MS/MS. The sample mixture was evaluated by LC-MS/MS using 10 mM ammonium acetate with 0.100 FA as the aqueous mobile phase, and methanol as the organic mobile phase.

[2] = Stability in mouse liver microsomes; format: in vitro ADME
Method: as §1
Half-Life Mouse Microsomes:
Compounds were evaluated in mouse liver microsomes following a similar procedure as described above for human liver microsomes. A similar procedure could be used to evaluate compounds in rat liver microsomes.

In the case of `CC(C)(CO)c1cc(-c2cc(-c3ccc(NC(=O)OC4CC4)cc3Cl)cs2)ccn1` [Compound I-9161, Cyclopropyl(3-chloro-4-(5-(2-(1-hydroxy-2-methylpropan-2-yl)pyridin-4-yl)thiophen-3-yl)phenyl)carbamate], the “percent of compound remaining after 60 min in human liver microsomes” value (from here on “percent of compound remaining”) [1] was “++ (30.1-60 = ++)” and the “percent parent remaining after 60 min in liver microsomes” value (“percent parent remaining after 60 min” below) [2] was “++ (30.1-60 = ++)”.
For `CS(=O)(=O)Nc1ccc(-c2cc(-c3ccnc(OCC4COCCO4)c3)cs2)c(Cl)c1` (stereo not drawn) [Compound I-9113, N-(4-(4-(2-((1,4-dioxan-2-yl)methoxy)pyridin-4-yl)thiophen-2-yl)-3-chlorophenyl)methanesulfonamide], the “percent of compound remaining” value [1] was “++ (30.1-60 = ++)” and the “percent parent remaining after 60 min” value [2] was “+++ (>60.1 = +++)”.
For `O=S(=O)(Nc1ccc(-c2cc(-c3ccnc(C4(CO)CC4)c3)cs2)c(Cl)c1)NC1CC1` [Compound I-9090], the “percent of compound remaining” value [1] was “++ (30.1-60 = ++)” and the “percent parent remaining after 60 min” value [2] was “++ (30.1-60 = ++)”.
In the case of `CS(=O)(=O)Nc1ccc(-c2cc(-c3ccnc(OCCC4(O)COC4)c3)cs2)c(Cl)c1` [Compound I-9112, N-(3-chloro-4-(4-(2-(2-(3-hydroxyoxetan-3-yl)ethoxy)pyridin-4-yl)thiophen-2-yl)phenyl)methanesulfonamide], the “percent of compound remaining” value [1] was “+++ (>60.1 = +++)” and the “percent parent remaining after 60 min” value [2] was “+++ (>60.1 = +++)”.
With `CC(C)NS(=O)(=O)Nc1ccc(-c2csc(-c3ccnc(C(C)(C)CO)c3)c2)c(Cl)c1` [Compound I-9162, 2-(4-(4-(2-chloro-4-(((isopropylamino)thio)amino)phenyl)thiophen-2-yl)pyridin-2-yl)-2-methylpropan-1-ol, S,S-dioxide] the “percent of compound remaining” value [1] was “+ (0-30 = +)” and the “percent parent remaining after 60 min” value [2] was “+++ (>60.1 = +++)”.
In the case of `CS(=O)(=O)Nc1ccc(-c2cc(-c3ccnc(O[C@@H]4CCC[C@@H]4O)c3)cs2)c(Cl)c1` [Compound I-9111, N-(3-chloro-4-(4-(2-(((1R,2S)-2-hydroxycyclopentyl)oxy)pyridin-4-yl)thiophen-2-yl)phenyl)methanesulfonamide], the “percent of compound remaining” value [1] was “+++ (>60.1 = +++)” and the “percent parent remaining after 60 min” value [2] was “+++ (>60.1 = +++)”.

Source: patent US20220056018A1, “SREBP INHIBITORS COMPRISING A THIOPHENE CENTRAL RING” (Capulus Therapeutics, LLC, priority 2019, published 2022)
